Common to all, as to type: functional, cell-based
One assay deals with PANC-1. Description: Antiproliferative activity against human PANC1 cells after 24 hrs by CCK8 assay. To be noted: PANC-1, 24 h.
The next assay has as its system HCC1806. Description: Antiproliferative activity against human HCC1806 cells after 24 hrs by CCK8 assay. The settings on record: HCC1806, 24 h.
In the next assay the test system is HepG2. In words: Antiproliferative activity against human HepG2 cells after 24 hrs by CCK8 assay. The settings on record: HepG2, 24 h. A general note: Tetrazolium assays rely on reduction of a dye to a coloured formazan, in cell work by metabolically active cells.
The next assay concerns BEAS-2B. In words: Antiproliferative activity against human BEAS2B cells after 24 hrs by CCK8 assay.
Another assay has as its system HT-29. Description: Antiproliferative activity against human HT-29 cells after 24 hrs by CCK8 assay. The settings on record: HT-29, 24 h.

Structures are written as SMILES. A value given as a limit tells only on which side of the number the result lay.

On to `COC(=O)[C@]1(Cc2ccc3c(c2)C[C@H](C(C)(C)O)O3)OC(=O)C(O)=C1c1ccc(O)cc1` [BUTYROLACTONE IV], for which the IC50 with PANC-1, in the assay with HCC1806, in the assay with HepG2, with BEAS-2B and with HT-29 was > 20 µM each time.

`COC(=O)[C@]1(Cc2ccc3c(c2)CC(O)C(C)(C)O3)OC(=O)C(O)=C1c1ccccc1` (some centres undefined): the IC50 in the assay with PANC-1, in the assay on HCC1806, in the assay with HepG2, in the assay with BEAS-2B and with HT-29 was > 20 µM in each case.

For `CC(=O)O[C@H]1C(=O)[C@@]2(C)[C@H]([C@H](OC(=O)c3ccccc3)[C@]3(O)C[C@H](OC(=O)[C@H](O)[C@@H](NC(=O)c4ccccc4)c4ccccc4)C(C)=C1C3(C)C)[C@]1(OC(C)=O)CO[C@@H]1C[C@@H]2O` [PACLITAXEL], the IC50 (as a rule, the concentration that gives 50% inhibition) with PANC-1 was found to be 0.04 µM; in the assay with HCC1806, 0.001 µM; in the assay on HepG2, 0.009 µM; in the assay with BEAS-2B it was 0.007 µM.

In the case of `COC(=O)[C@]1(Cc2ccc(O)c(CC=C(C)C)c2)OC(=O)C(O)=C1c1ccc(O)cc1`, the IC50 in the assay on PANC-1, with HCC1806, in the assay with HepG2, in the assay with BEAS-2B and with HT-29 was > 20 µM throughout.

`COC(=O)[C@]1(Cc2ccc(O)c(CC3OC3(C)C)c2)OC(=O)C(O)=C1c1ccc(O)cc1` (some centres undefined): the IC50 in the assay on PANC-1, in the assay with HCC1806, with HepG2, with BEAS-2B and in the assay with HT-29 was > 20 µM in each case.

Regarding `COC(=O)[C@]1(Cc2ccc3c(c2)CCC(C)(C)O3)OC(=O)C(O)=C1c1ccc(O)cc1`, the IC50 in the assay on PANC-1, with HCC1806, in the assay on HepG2, in the assay on BEAS-2B and in the assay with HT-29 was > 20 µM in each case.

Source of the values: ChEMBL document CHEMBL4261633, “Butenolides from a marine-derived fungus Aspergillus terreus with antitumor activities against pancreatic ductal adenocarcinoma cells” (Bioorg Med Chem, 2018).
